Data from patent US20240254118A1, “PRMT5 INHIBITORS AND USES THEREOF” (Gilead Sciences, Inc., priority 2022, published 2024).
pEC50: −log10 of the molar value.

Columns and labels:
[1] = test system: SDMA signal (PRMT5 inhibition) in HCT116 MTAP-deleted cells; experiment: Symmetric di-methyl arginine image-based high content screen assay (SDMA assay), HCT116 MTAP-deleted; assay type: cell-based; details: SDMA assay; for pEC50: Homo sapiens, HCT-116, 72 h, 3 days of treatment, cell line not given, taken as HCT116 MTAP-deleted, read-out: EC50 (SDMA assay); for EC50 selectivity (SDMA assay): taken as HCT116 WT versus MTAP-deleted
Summary of the method: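 HCT116 MTAP-deleted cells treated with compound until Day 3, then formalin-fixed, permeabilized and immunostained for SDMA, with DAPI nuclear counterstain. Imaged by high-content microscopy; SDMA read-out is mean Alexa 488 intensity per DAPI-defined cell, reflecting PRMT5 inhibition.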

[2] = test system: HCT116 MTAP-deleted cells; experiment: Cell viability assay (CellTiter-Glo, 7 days), HCT116 MTAP-deleted; details: Homo sapiens, HCT-116, 168 h

SMILES | pEC50 [1] | EC50 selectivity (SDMA assay) [1] | CC50 [2]
Cn1ncc2c(N)nc3ccc(C(=O)N(Cc4ccc(C(F)(F)F)cn4)N4CCOCC4)cc3c21 [Example 20, 4-amino-1-methyl-N-morpholino-N-((5-(trifluoromethyl)pyridin-2-yl)methyl)-1H-pyrazolo[4,3-c]quinoline-8-carboxamide] | > 9.00 | 143 | < 100 nM
CC(=O)N([C@@H]1CCOC1)N(Cc1ccc(C(F)(F)F)cn1)C(=O)c1ccc2nc(N)c3cnn(C)c3c2c1 [Example 206, N′-acetyl-4-amino-1-methyl-N′-[(3R)-tetrahydrofuran-3-yl]-N-[[5-(trifluoromethyl)-2-pyridyl]methyl]pyrazolo[4,3-c]quinoline-8-carbohydrazide] | < 8.30 | 220 | 100 to 1000 nM
CN(C(=O)[C@@H]1C[C@@H]1F)N(Cc1ccc(C(F)(F)F)cn1)C(=O)c1ccc2nc(N)c3cnn(C)c3c2c1 [Example 276, 4-amino-N′-((1S,2S)-2-fluorocyclopropane-1-carbonyl)-N′,1-dimethyl-N-((5-(trifluoromethyl)pyridin-2-yl)methyl)-1H-pyrazolo[4,3-c]quinoline-8-carbohydrazide] | 8.30 to 9.00 | 166 | < 100 nM
CN1CCN(N(Cc2ccc(C(F)(F)F)cn2)C(=O)c2cc3c(cc2F)nc(N)c2cnn(C)c23)CC1 [Example 59, 4-amino-7-fluoro-1-methyl-N-(4-methylpiperazin-1-yl)-N-((5-(trifluoromethyl)pyridin-2-yl)methyl)-1H-pyrazolo[4,3-c]quinoline-8-carboxamide] | > 9.00 | 53 | < 100 nM
CN(C(=O)C1CC1)N(Cc1ccc(F)cc1)C(=O)c1ccc2nc(N)c3cnn(C)c3c2c1 [Example 235, 4-amino-N′-(cyclopropanecarbonyl)-N-(4-fluorobenzyl)-N′,1-dimethyl-1H-pyrazolo[4,3-c]quinoline-8-carbohydrazide] | 8.30 to 9.00 | 259 | < 100 nM
CN(C(=O)C1CC1)N(Cc1ccc(C#CC2CCCO2)cc1F)C(=O)c1ccc2nc(N)c3cnn(C)c3c2c1 (stereo not drawn) [Example 391, 4-amino-N′-(cyclopropanecarbonyl)-N-(2-fluoro-4-((tetrahydrofuran-2-yl)ethynyl)benzyl)-N′,1-dimethyl-1H-pyrazolo[4,3-c]quinoline-8-carbohydrazide] | 8.30 to 9.00 | 64 | < 100 nM
Cc1cc(CN(C(=O)c2ccc3nc(N)c4cnn(C)c4c3c2)N(C)C(=O)C2CC2)ncc1Cl [Example 267, 4-amino-N-((5-chloro-4-methylpyridin-2-yl)methyl)-N′-(cyclopropanecarbonyl)-N′,1-dimethyl-1H-pyrazolo[4,3-c]quinoline-8-carbohydrazide] | 8.30 to 9.00 | 223 | < 100 nM
CN(C(=O)C(F)F)N(Cc1ccc(C(F)(F)F)cn1)C(=O)c1ccc2nc(N)c3cnn(C)c3c2c1 [Example 195, 4-amino-N′-(2,2-difluoroacetyl)-N′,1-dimethyl-N-[[5-(trifluoromethyl)-2-pyridyl]methyl]pyrazolo[4,3-c]quinoline-8-carbohydrazide] | > 9.00 | 146 | < 100 nM
CN(C(=O)C1CC1)N(Cc1ccc(F)cc1F)C(=O)c1ccc2nc(N)c3cnn(C)c3c2c1 [Example 122, 4-amino-N′-(cyclopropanecarbonyl)-N-(2,4-difluorobenzyl)-N′,1-dimethyl-1H-pyrazolo[4,3-c]quinoline-8-carbohydrazide] | > 9.00 | 261 | < 100 nM
CC(=O)N(N(Cc1ccc(C(F)(F)F)cn1)C(=O)c1ccc2nc(N)c3cnn(C)c3c2c1)C12CC(C1)C2 [Example 107, N′-acetyl-4-amino-N′-(1-bicyclo[1.1.1]pentanyl)-1-methyl-N-[[5-(trifluoromethyl)-2-pyridyl]methyl]pyrazolo[4,3-c]quinoline-8-carbohydrazide] | > 9.00 | 163 | < 100 nM
